Measured values as given in patent EP4574151A1, “INHIBITORS OF G12V-MUTATED RAS PROTEIN TO TREAT CANCER” (Personather Spolka Z Ograniczona Odpowiedzialnoscia, priority 2023, dated 2025).

Key:
[1] = system: BALB/c mice; assay: Acute toxicity after oral administration (Acute Toxicity test TG425); type: in vivo; conditions: female BALB/c mice, oral by gastric probe, 40 mg of substance in corn oil, three mice, observed two weeks
Excerpt: The study was planned according to Acute Toxicity Test 425 (oral administration) - higher-lower-dose procedure, in accordance with the OECD regulation of October 3, 2008. The test procedure described in these guidelines is useful in minimizing the number of animals needed to estimate the acute toxicity after oral administration of potential drugs. In addition to the LD50 assessment and confidence intervals, the test allows for the observation of signs of toxicity. For this purpose, an experiment was agreed upon with the Local Ethics Committee for Animal Experimentation, using BALB/c mice. The TG425 method allows for the estimation of LD50 values with confidence intervals, and the results allow for the classification of substances according to the global harmonized system for the classification of chemicals that cause acute toxicity.
A sequential test, utilizing a maximum of 5 animals, was applied, which is known as the limit test. A test dose of either 2000 or uniquely 5000 mg/kg can be used. The testing procedures at 2000 and 5000 mg/kg differ slightly (see Sections 23-25 for the limit test at 2000 mg/kg and Sections 26-30 for the limit test at 5000 mg/kg). The selection of a sequential testing plan increases the statistical power, and a deliberate deviation from the limit test rejection procedure was made for compounds with an LD50 near the limit dose; i.e. committing an error on the side of caution. As with any limit test protocol, the probability of correct compound classification will decrease, as the actual LD50 value more closely resembles the limit dose.
• 1. Female Balb/c mice, which were 50-56 days postpartum, were used for the purposes of this experiment. • 2. Mice underwent a 1-week quarantine after being transported to the laboratory. • 3. The studied molecules (PER154A, PER160A, PER170A, PER176A) were suspended according to the TG425 protocol, i.e. 40 mg of substance in […] of laboratory corn oil and orally administered through a plastic gastro probe (used: 20ga (0.9 mm OD x 0.5 mm ID), 38 mm), which was suitable for the size of the animal (17-21 g). The mice were observed and weighed almost daily. • 4. Mouse housing conditions: up to 4 mice per cage; temperature: 23.2 - 23.40°C; humidity: 27.6 - 40.9% relative humidity. • 5. Two weeks later (time counted separately for each mouse), a resection was performed to analyze internal organs for any abnormalities.

[2] = system: SW620 cells (with RASG12V mutation); assay: Crystal violet cytotoxicity test (IC50) in KRASG12V positive cells; type: cell-based; conditions: summary statement
Excerpt: IC50 (half-maximal inhibitory concentration) is the concentration value of a tested compound which inhibits biochemical and biological functions of cells in half of the tested population. Determining this indicator is extremely important for assessing the cytotoxicity of molecules with therapeutic potential.
The first step in developing the methodology for determining IC50 was to conduct density tests to determine the appropriate number of cells to use in cytotoxicity tests. The different content of bovine fetal serum in the culture medium was also investigated to rule out any potential impact on the reduction in cell count, regardless of the analyzed molecules.
(§1) As a research model, colon cancer and lung cancer cell lines (sensitive lines) were used, including SW620, SW480, and COR-L23, respectively, which are characterized by the KRASG12V gene mutation and lack of other alterations in genes belonging to the RAS protein signaling pathway, as well as a stable line of normal cells (mouse fibroblasts), which serve as a platform for evaluating the impact of tested compounds on non-cancer cells. Below is the result for one of the analyzed cell lines with the mutation. Similar differences in IC50 values compared to normal cells were obtained for the other cell lines mentioned above with the RASG12V mutation.
(§2) The effect of molecules on the biology of selected cell lines to assess their cytotoxicity using the IC50 indicator was carried out according to the protocol below: • 1. The cells of the tested lines were seeded in wells of a 96-well plate at specified densities. • 2. After seeding, the cells were subjected to a 24-hour incubation in medium with a 1% and 2.5% addition of serum (sensitive lines) or in medium with a 0.5% addition of serum (normal line). • 3. The cells were exposed to selected molecules at selected concentrations. The control was provided by the culture medium without any added compounds. Concentrations of the tested molecules [uM]: • □ NIH3T3: 500; 250; 125; 62,5; 31,25 • □ SW620: 60; 30; 15; 7,5; 3,75 • 4. After 72 hours of incubation, the culture medium was removed and the cells were washed twice with buffer saline solution (PBS). Then, the cells were incubated for 10 minutes with a 0.1% solution of crystal violet at room temperature (Merck Millipore). • 5. After 10 minutes, the crystal violet solution was removed and the wells of the 96-well plate were washed twice with PBS solution. • 4. 50% ice-cold acetic acid solution was added to each well and incubated again for 10 minutes at room temperature on a shaker at 650 rpm. • 5. Absorbance measurement was performed using a plate reader, at a wavelength of λ = 540 nm

[3] = system: NCI-H1975; assay: Toxicity against cancer cells expressing wild type RAS; type: cell-based; conditions: summary statement
Description: The results of in vitro analyses were presented in the examples. Commercially available cancer cell lines were used for the studies, including SW480, SW620, and COR-L23, showing endogenous expression of KRASG12V, as well as a cell line with exogenously introduced KRASG12V mutation (using methods of genetic engineering) - the DK-MGEGFRvIIIKRASG12V line. Additionally, the cancer cell line NCI- H1975, characterized by the expression of wild type RASWT proteins, was also analyzed.

[4] = system: NIH/3T3 cell line - immortalized mouse fibroblasts; assay: Crystal violet cytotoxicity test in normal cells; type: cell-based; conditions: summary statement; normal cells NIH/3T3 and PER49
Excerpt: To evaluate the toxicity of the tested compound on normal cells, the NIH/3T3 cell line - immortalized mouse fibroblasts and normal pericytes (PER49) were used.
as §1, §2

| Compound | safety in acute oral toxicity test [1] | toxicity against cancer cells expressing KRASG12V [2] | toxicity against cancer cells expressing normal RAS protein [3] | toxicity against normal cells [4] |
| --- | --- | --- | --- | --- |
| Cc1ccc(NC(=O)c2ccc3c(c2)C2C4CCC(C4)C2C(c2ccccc2)N3)cc1C (centres unmarked) [PER170A] | safe for mice | toxicity | no toxicity | no toxicity |
| O=C(Nc1ccc(Br)c(Cl)c1)c1ccc2c(c1)C1C3CCC(C3)C1C(c1ccccc1)N2 (centres unmarked) [PER176A] | safe for mice | toxicity | no toxicity | no toxicity |
